From the NIST ThermoML archive (doi:10.1021/je800101v)
Numbers after ± are expanded uncertainties.

Assay: xn = mol fraction of the nth substance listed
Settings: Ring tensiometer

SMILES: CCCCCCCO [heptan-1-ol] + OCCO
- surface tension liquid-gas (298.15 K, x1 = 0.0559): 29.24 ± 0.45 mN/m
- surface tension liquid-gas (298.15 K, x1 = 0.1059): 27.73 ± 0.44 mN/m
- surface tension liquid-gas (298.15 K, x1 = 0.1508): 27.18 ± 0.43 mN/m
- surface tension liquid-gas (298.15 K, x1 = 0.1914): 27.05 ± 0.43 mN/m
- surface tension liquid-gas (298.15 K, x1 = 0.2512): 26.93 ± 0.43 mN/m
- surface tension liquid-gas (298.15 K, x1 = 0.3027): 26.78 ± 0.43 mN/m
- surface tension liquid-gas (298.15 K, x1 = 0.3559): 26.67 ± 0.43 mN/m
- surface tension liquid-gas (298.15 K, x1 = 0.4085): 26.57 ± 0.43 mN/m
- surface tension liquid-gas (298.15 K, x1 = 0.4532): 26.41 ± 0.43 mN/m
- surface tension liquid-gas (298.15 K, x1 = 0.4966): 26.32 ± 0.42 mN/m
- surface tension liquid-gas (298.15 K, x1 = 0.5502): 26.25 ± 0.42 mN/m
- surface tension liquid-gas (298.15 K, x1 = 0.5999): 26.17 ± 0.42 mN/m
- surface tension liquid-gas (298.15 K, x1 = 0.6369): 26 ± 0.42 mN/m
- surface tension liquid-gas (298.15 K, x1 = 0.6928): 26.08 ± 0.42 mN/m
- surface tension liquid-gas (298.15 K, x1 = 0.7246): 26.01 ± 0.42 mN/m
- surface tension liquid-gas (298.15 K, x1 = 0.7978): 25.92 ± 0.42 mN/m
- surface tension liquid-gas (298.15 K, x1 = 0.8403): 25.83 ± 0.42 mN/m
- surface tension liquid-gas (298.15 K, x1 = 0.8875): 25.71 ± 0.42 mN/m
- surface tension liquid-gas (298.15 K, x1 = 0.9404): 25.62 ± 0.42 mN/m
- surface tension liquid-gas (303.15 K, x1 = 0.0559): 29.16 ± 0.45 mN/m
- surface tension liquid-gas (303.15 K, x1 = 0.1059): 28.02 ± 0.44 mN/m
- surface tension liquid-gas (303.15 K, x1 = 0.1508): 27.66 ± 0.44 mN/m
- surface tension liquid-gas (303.15 K, x1 = 0.1914): 27.54 ± 0.44 mN/m
- surface tension liquid-gas (303.15 K, x1 = 0.2512): 27.36 ± 0.43 mN/m
- surface tension liquid-gas (303.15 K, x1 = 0.3027): 27.2 ± 0.43 mN/m
- surface tension liquid-gas (303.15 K, x1 = 0.3559): 27.07 ± 0.43 mN/m
- surface tension liquid-gas (303.15 K, x1 = 0.4085): 26.89 ± 0.43 mN/m
- surface tension liquid-gas (303.15 K, x1 = 0.4532): 26.77 ± 0.43 mN/m
- surface tension liquid-gas (303.15 K, x1 = 0.4966): 26.67 ± 0.43 mN/m
- surface tension liquid-gas (303.15 K, x1 = 0.5502): 26.6 ± 0.43 mN/m
- surface tension liquid-gas (303.15 K, x1 = 0.5999): 26.48 ± 0.43 mN/m
- surface tension liquid-gas (303.15 K, x1 = 0.6369): 26.39 ± 0.42 mN/m
- surface tension liquid-gas (303.15 K, x1 = 0.6928): 26.31 ± 0.42 mN/m
- surface tension liquid-gas (303.15 K, x1 = 0.7246): 26.25 ± 0.42 mN/m
- surface tension liquid-gas (303.15 K, x1 = 0.7978): 26.18 ± 0.42 mN/m
- surface tension liquid-gas (303.15 K, x1 = 0.8403): 26.12 ± 0.42 mN/m
- surface tension liquid-gas (303.15 K, x1 = 0.8875): 26.07 ± 0.42 mN/m
- surface tension liquid-gas (303.15 K, x1 = 0.9404): 26.02 ± 0.42 mN/m
- surface tension liquid-gas (308.15 K, x1 = 0.0559): 28.96 ± 0.45 mN/m
- surface tension liquid-gas (308.15 K, x1 = 0.1059): 27.88 ± 0.44 mN/m
- surface tension liquid-gas (308.15 K, x1 = 0.1508): 27.55 ± 0.44 mN/m
- surface tension liquid-gas (308.15 K, x1 = 0.1914): 27.21 ± 0.43 mN/m
- surface tension liquid-gas (308.15 K, x1 = 0.2512): 26.98 ± 0.43 mN/m
- surface tension liquid-gas (308.15 K, x1 = 0.3027): 26.84 ± 0.43 mN/m
- surface tension liquid-gas (308.15 K, x1 = 0.3559): 26.69 ± 0.43 mN/m
- surface tension liquid-gas (308.15 K, x1 = 0.4085): 26.65 ± 0.43 mN/m
- surface tension liquid-gas (308.15 K, x1 = 0.4532): 26.57 ± 0.43 mN/m
- surface tension liquid-gas (308.15 K, x1 = 0.4966): 26.42 ± 0.43 mN/m
- surface tension liquid-gas (308.15 K, x1 = 0.5502): 26.24 ± 0.42 mN/m
- surface tension liquid-gas (308.15 K, x1 = 0.5999): 26.12 ± 0.42 mN/m
- surface tension liquid-gas (308.15 K, x1 = 0.6369): 26.09 ± 0.42 mN/m
- surface tension liquid-gas (308.15 K, x1 = 0.6928): 26.01 ± 0.42 mN/m
- surface tension liquid-gas (308.15 K, x1 = 0.7246): 25.91 ± 0.42 mN/m
- surface tension liquid-gas (308.15 K, x1 = 0.7978): 25.85 ± 0.42 mN/m
- surface tension liquid-gas (308.15 K, x1 = 0.8403): 25.78 ± 0.42 mN/m
- surface tension liquid-gas (308.15 K, x1 = 0.8875): 25.68 ± 0.42 mN/m
- surface tension liquid-gas (308.15 K, x1 = 0.9404): 25.62 ± 0.42 mN/m
- surface tension liquid-gas (313.15 K, x1 = 0.0559): 28.78 ± 0.45 mN/m
- surface tension liquid-gas (313.15 K, x1 = 0.1059): 27.71 ± 0.44 mN/m
- surface tension liquid-gas (313.15 K, x1 = 0.1508): 27.42 ± 0.44 mN/m
- surface tension liquid-gas (313.15 K, x1 = 0.1914): 27.06 ± 0.43 mN/m
- surface tension liquid-gas (313.15 K, x1 = 0.2512): 26.81 ± 0.43 mN/m
- surface tension liquid-gas (313.15 K, x1 = 0.3027): 26.71 ± 0.43 mN/m
- surface tension liquid-gas (313.15 K, x1 = 0.3559): 26.53 ± 0.43 mN/m
- surface tension liquid-gas (313.15 K, x1 = 0.4085): 26.42 ± 0.43 mN/m
- surface tension liquid-gas (313.15 K, x1 = 0.4532): 26.32 ± 0.42 mN/m
- surface tension liquid-gas (313.15 K, x1 = 0.4966): 26.23 ± 0.42 mN/m
- surface tension liquid-gas (313.15 K, x1 = 0.5502): 26.07 ± 0.42 mN/m
- surface tension liquid-gas (313.15 K, x1 = 0.5999): 25.92 ± 0.42 mN/m
- surface tension liquid-gas (313.15 K, x1 = 0.6369): 25.83 ± 0.42 mN/m
- surface tension liquid-gas (313.15 K, x1 = 0.6928): 25.68 ± 0.42 mN/m
- surface tension liquid-gas (313.15 K, x1 = 0.7246): 25.62 ± 0.42 mN/m
- surface tension liquid-gas (313.15 K, x1 = 0.7978): 25.52 ± 0.42 mN/m
- surface tension liquid-gas (313.15 K, x1 = 0.8403): 25.51 ± 0.42 mN/m
- surface tension liquid-gas (313.15 K, x1 = 0.8875): 25.45 ± 0.42 mN/m
- surface tension liquid-gas (313.15 K, x1 = 0.9404): 25.45 ± 0.42 mN/m
- surface tension liquid-gas (318.15 K, x1 = 0.0559): 28.64 ± 0.45 mN/m
- surface tension liquid-gas (318.15 K, x1 = 0.1059): 27.55 ± 0.44 mN/m
- surface tension liquid-gas (318.15 K, x1 = 0.1508): 27.28 ± 0.43 mN/m
- surface tension liquid-gas (318.15 K, x1 = 0.1914): 26.91 ± 0.43 mN/m
- surface tension liquid-gas (318.15 K, x1 = 0.2512): 26.67 ± 0.43 mN/m
- surface tension liquid-gas (318.15 K, x1 = 0.3027): 26.57 ± 0.43 mN/m
- surface tension liquid-gas (318.15 K, x1 = 0.3559): 26.35 ± 0.42 mN/m
- surface tension liquid-gas (318.15 K, x1 = 0.4085): 26.28 ± 0.42 mN/m
- surface tension liquid-gas (318.15 K, x1 = 0.4532): 26.16 ± 0.42 mN/m
- surface tension liquid-gas (318.15 K, x1 = 0.4966): 26.07 ± 0.42 mN/m
- surface tension liquid-gas (318.15 K, x1 = 0.5502): 25.91 ± 0.42 mN/m
- surface tension liquid-gas (318.15 K, x1 = 0.5999): 25.78 ± 0.42 mN/m
- surface tension liquid-gas (318.15 K, x1 = 0.6369): 25.65 ± 0.42 mN/m
- surface tension liquid-gas (318.15 K, x1 = 0.6928): 25.52 ± 0.42 mN/m
- surface tension liquid-gas (318.15 K, x1 = 0.7246): 25.48 ± 0.42 mN/m
- surface tension liquid-gas (318.15 K, x1 = 0.7978): 25.37 ± 0.41 mN/m
- surface tension liquid-gas (318.15 K, x1 = 0.8403): 25.31 ± 0.41 mN/m
- surface tension liquid-gas (318.15 K, x1 = 0.8875): 25.21 ± 0.41 mN/m
- surface tension liquid-gas (318.15 K, x1 = 0.9404): 25.14 ± 0.41 mN/m
